Test results from patent US20250025454A1 (priority 2021, published 2025).
“And” between values parts separate entries of the source, which are not always exact repeats. Identical values can stand only once. “Also recorded” adds a separate entry of the source.

Key:
[1] = Pharmacokinetics (plasma, lung at 24 h) after single oral dosing in male Sprague-Dawley rats; settings: male, Sprague-Dawley, rat, po; for AUC(0-t): AUClast
[2] = Pharmacokinetics (plasma and lung tissue) after single and 5-day repeat oral dosing in female 129S1 mice; settings: for adverse reactions / tolerability: female 129S1 mice, PO 50 and 250 mg/kg up to 5 days; for Kp: Lung/Plasma AUC ratio; for AUC(0-t): AUClast ± SE; for MRT last at 5 day / MRT last: MRTlast; for Kp at 24 h: L/P Ratio, non-infected mice, 250 mg/kg QD oral
[3] = in vivo, 1000 mg/kg, male SD rat plasma, single oral 1000 mg/kg (Group 4), one outlier excluded, mean
[4] = female, 129S1, mouse, in vivo, 250 mg/kg
[5] = female, 129S1, mouse, in vivo, po, 50 mg/kg
[6] = female, 129S1, mouse, in vivo, po, 50 mg/kg, plasma, 50 mg/kg PO multiple, 5-day, dose
[7] = female, 129S1, mouse, in vivo, po, 50 mg/kg, plasma, 50 mg/kg PO single dose
[8] = female, 129S1, mouse, in vivo, po, 250 mg/kg
[9] = female, 129S1, mouse, in vivo, po, 250 mg/kg, plasma, 250 mg/kg PO multiple, 5-day, dose
[10] = female, 129S1, mouse, in vivo, po, 250 mg/kg, plasma, 250 mg/kg PO single dose
[11] = female, 129S1, mouse, in vivo, po, 250 mg/kg, lung, 250 mg/kg PO multiple, 5-day, dose

SMILES: Cc1c(-c2ccc(O)cc2)n(Cc2ccc(OCCN3CCCCC3)cc2)c2ccc(O)cc12 [Pipendoxifene, 2-(4-hydroxyphenyl)-3-methyl-1-[[4-(2-piperidin-1-ylethoxy)phenyl]methyl]indol-5-ol]
- Tmax ([1]; in vivo, 750 mg/kg, male SD rat plasma, single oral 750 mg/kg (Group 3), individual rats 456, 457, 458): 8 h
- Tmax ([1]; in vivo, 750 mg/kg, male SD rat plasma, single oral 750 mg/kg (Group 3), mean): 6.67 ± 1.15 h
- concentration at 24 h ([1]; in vivo, 1000 mg/kg): 13400 ng/g
- AUC(0-t) ([1]; in vivo, 1000 mg/kg, male SD rat plasma, single oral 1000 mg/kg (Group 4), all data included, mean): 6760 ± 930 ng·h/mL
- AUC(0-t) ([1]; in vivo, 1000 mg/kg, male SD rat plasma, single oral 1000 mg/kg (Group 4), one outlier excluded, individual rats 459, 460, 461): 3980 ng·h/mL
- AUC(0-t) [1, 3]: 5710 ± 1730 ng·h/mL
- AUC(0-inf) [1, 3]: 6880 ng·h/mL
- half-life ([1]; in vivo, 1000 mg/kg, t1/2, male SD rat plasma, single oral 1000 mg/kg (Group 4), all data included, individual rats 459, 460, 461): 4.3 h
- half-life ([1]; in vivo, 1000 mg/kg, t1/2, male SD rat plasma, single oral 1000 mg/kg (Group 4), all data included, mean): 4.88 ± 0.5 h
- half-life ([1]; in vivo, 1000 mg/kg, t1/2, male SD rat plasma, single oral 1000 mg/kg (Group 4), one outlier excluded, individual rats 459, 460): 4.3 h
- half-life ([1]; in vivo, 1000 mg/kg, t1/2, male SD rat plasma, single oral 1000 mg/kg (Group 4), one outlier excluded, mean): 4.73 h
- half-life ([1]; in vivo, plasma t1/2, range, 250-1000 mg/kg single oral dose): 4.71 to 6.06 h
- concentration at 2 h ([1]; plasma, 500 mg/kg, Plasma concentration, male SD rat, single oral 500 mg/kg (Group 2), 2 hr, individual rats 453, 454, 455): 136 ng/mL
- concentration at 6 h ([1]; plasma, 500 mg/kg, Plasma concentration, male SD rat, single oral 500 mg/kg (Group 2), 6 hr, individual rats 453, 454, 455): 428 ng/mL
- concentration at 8 h ([1]; plasma, 500 mg/kg, Plasma concentration, male SD rat, single oral 500 mg/kg (Group 2), individual rats 453, 454, 455): 561 ng/mL
- concentration at 6 h ([1]; plasma, 750 mg/kg, Plasma concentration, male SD rat, single oral 750 mg/kg (Group 3), 6 hr, individual rats 456, 457, 458): 381 ng/mL
- concentration at 8 h ([1]; plasma, 750 mg/kg, Plasma concentration, male SD rat, single oral 750 mg/kg (Group 3), individual rats 456, 457, 458): 497 ng/mL
- AUC(0-t) ([1]; plasma, 1000 mg/kg, male SD rat plasma, single oral 1000 mg/kg (Group 4), one outlier excluded, individual rats 459, 460, 461): 7440 ng·h/mL
- AUC(0-inf) ([1]; plasma, 1000 mg/kg, male SD rat plasma, single oral 1000 mg/kg (Group 4), one outlier excluded, individual rats 459, 460): 5880 ng·h/mL
- Cmax ([1]; plasma, 1000 mg/kg, Cmax, male SD rat plasma, single oral 1000 mg/kg (Group 4), one outlier excluded, individual rats 459, 460, 461): 365 ng/mL
- concentration at 6 h ([1]; plasma, 1000 mg/kg, Plasma concentration, male SD rat, single oral 1000 mg/kg (Group 4), all data included, 6 hr, individual rats 459, 460, 461): 365 ng/mL
- concentration at 4 hr ([1]; plasma, 1000 mg/kg, Plasma concentration, male SD rat, single oral 1000 mg/kg (Group 4), one outlier excluded, 4 hr, mean): 381 ng/mL
- concentration at 6 hr ([1]; plasma, 1000 mg/kg, Plasma concentration, male SD rat, single oral 1000 mg/kg (Group 4), one outlier excluded, 6 hr, individual rats 459, 460, 461): 365 ng/mL
- Lung Cmax over SARS-CoV-2 IC50 ([2]; 50 mg/kg): 17 fold
- Mean plasma concentration ([2]; 50 mg/kg PO single dose, 1.0 hr): 89.1 ng/mL
- Lung Cmax over SARS-CoV-2 IC50 ([2]; 250 mg/kg): 121 fold
- Mean plasma concentration ([2]; 250 mg/kg PO single dose, 0.5 hr): 88.8 ng/mL
- adverse reactions / tolerability [2]: no adverse events
- adverse reactions / tolerability ([2]; listed as MDL-001): well tolerated with no adverse clinical signs; also recorded: No adverse reactions were observed
- adverse reactions / tolerability ([2]; listed as pipendoxifene): No adverse reactions were observed
- concentration at 8 hr ([2]; female, 129S1, mouse, in vivo, 50 mg/kg): 7840 ng/g
- Kp ([2]; female, 129S1, mouse, in vivo, 50 mg/kg, Day 1, 50 mg/kg): 65
- Kp ([2]; female, 129S1, mouse, in vivo, 50 mg/kg, Day 5, 50 mg/kg): 56
- concentration at 8 h [2, 4]: 575 ± 194 ng/mL
- concentration at 8 hr [2, 4]: 121 ng/mL
- half-life [2, 4]: 2.36 to 3.96 h
- Kp ([2]; female, 129S1, mouse, in vivo, 250 mg/kg, Day 1, 250 mg/kg): 36
- Kp ([2]; female, 129S1, mouse, in vivo, 250 mg/kg, Day 5, 250 mg/kg): 44
- Cmax [2, 5]: 179 ng/mL and 8310 ng/g
- Cmax at 5 day [2, 5]: 5610 ± 925 ng/g
- half-life [2, 5]: 2.36 h
- half-life at 5 day [2, 5]: 2.58 h
- AUC(0-t) [2, 6]: 1390 ± 55 ng·h/mL
- AUC(0-t) [2, 7]: 1600 ± 115 ng·h/mL
- AUC(0-inf) [2, 6]: 1400 ng·h/mL
- AUC(0-inf) [2, 7]: 1600 ng·h/mL
- MRT last at 5 day [2, 6]: 7.1 h
- MRT last [2, 7]: 6.95 h
- Tmax at 5 day ([2]; female, 129S1, mouse, in vivo, po, 50 mg/kg, lung, 50 mg/kg PO multiple, 5-day, dose): 8 h
- Tmax ([2]; female, 129S1, mouse, in vivo, po, 50 mg/kg, lung, 50 mg/kg PO single dose): 4 h
- Tmax [2, 7]: 2 h
- Cmax [2, 8]: 1020 ng/mL and 24700 ng/g
- Cmax at 5 day [2, 8]: 39000 ± 8840 ng/g
- half-life [2, 8]: 3.96 h
- half-life at 5 day [2, 8]: 2.52 h
- AUC(0-t) [2, 9]: 11600 ± 1190 ng·h/mL
- AUC(0-inf) [2, 9]: 11700 ng·h/mL
- AUC(0-inf) [2, 10]: 10500 ng·h/mL
- Kp at 24 h ([2]; female, 129S1, mouse, in vivo, po, 250 mg/kg, Day 1): 114
- Kp at 24 h ([2]; female, 129S1, mouse, in vivo, po, 250 mg/kg, Day 5): 177
- MRT last at 5 day [2, 11]: 7.22 h
- MRT last [2, 10]: 8.86 h
- Tmax at 5 day [2, 11]: 4 h
- Tmax ([2]; female, 129S1, mouse, in vivo, po, 250 mg/kg, lung, 250 mg/kg PO single dose): 8 h
- concentration at 8 h ([2]; female, 129S1, mouse, lung, oral, 50 mg/kg, Mean lung tissue concentration, 50 mg/kg PO multiple, 5-day, dose, 8.0 hr): 5610 ± 1600 ng/g
- concentration at 1 hr ([2]; female, 129S1, mouse, plasma, oral, 50 mg/kg, Mean plasma concentration, 50 mg/kg PO single dose, 1.0 hr): 89.1 ± 71.2 ng/mL
- concentration at 4 h ([2]; female, 129S1, mouse, plasma, oral, 50 mg/kg, Mean plasma concentration, 50 mg/kg PO single dose, 4.0 hr): 107 ± 23 ng/mL
- concentration at 2 hr ([2]; female, 129S1, mouse, plasma, oral, 50 mg/kg, Plasma Conc., individual mouse, 50 mg/kg PO multiple, 5-day, dose, 2.0 hr): 113 ng/mL
- concentration at 6 hr ([2]; female, 129S1, mouse, plasma, oral, 50 mg/kg, Plasma Conc., individual mouse, 50 mg/kg PO multiple, 5-day, dose, 6.0 hr): 163 ng/mL
- concentration at 8 hr ([2]; female, 129S1, mouse, plasma, oral, 50 mg/kg, Plasma Conc., individual mouse, 50 mg/kg PO single dose, 8.0 hr): 113 ng/mL
- concentration at 0.5 h ([2]; female, 129S1, mouse, plasma, oral, 250 mg/kg, Mean plasma concentration, 250 mg/kg PO single dose, 0.5 hr): 88.8 ± 14.1 ng/mL
- concentration at 4 hr ([2]; female, 129S1, mouse, plasma, oral, 250 mg/kg, Plasma Conc., individual mouse, 250 mg/kg PO multiple, 5-day, dose, 4.0 hr): 497 ng/mL
